The target of assay [1] is T1, human dopamine D3 receptors (Homo sapiens, UniProt P35462).
T1 construct: expressed in transfected cells; membranes)
The experiment in a line: Dopamine D3 receptor binding, [125I]-iodosulpride displacement. The following applies: for Ki: membranes from HEK-293 cells stably expressing receptor, 0.1 nM [125I]-iodosulpride, 25° C., 60 minutes; for Ki(D2)*/Ki(D3)*: selectivity, ratio of receptor binding constants D2/D3. The procedure:
(§1) The substance to be tested was either dissolved in methanol/Chremophor® (BASF-AG) or in dimethyl sulfoxide and then diluted with water to the desired concentration.
(§2) Each assay mixture was run in triplicate.
The incubation buffer contained 50 mM tris, 120 mM NaCl, 5 mM KCl, 2 mM CaCl2, 2 mM MgCl2 and 0.1% bovine serum albumin, 10 μM quinolone and 0.1% ascorbic acid (prepared fresh daily). The buffer was adjusted to pH 7.4 with HCl.
(§3) After having been incubated at 25° C. for 60 minutes, the assay mixtures were filtered through a Whatman GF/B glass fiber filter under vacuum using a cell collecting device. The filters were transferred to scintillation viols using a filter transfer system. After 4 ml of Ultima Gold® (Packard) have been added, the samples were shaken for one hour and the radioactivity was then counted in a Beta-Counter (Packard, Tricarb 2000 or 2200CA). The cpm values were converted into dpm using a standard quench series and the program belonging to the instrument.
(§4) The inhibition curves were analyzed by means of iterative nonlinear regression analysis using the Statistical Analysis System (SAS) which is similar to the “LIGAND” program described by Munson and Rodbard.

Assay [2] has as its target T2, human dopamine D2L receptors (long isoform) (Homo sapiens, UniProt P14416).
T2 construct: expressed in transfected cells; membranes)
The experiment in a line: Dopamine D2L receptor binding, [125I] iodospiperone displacement. The settings on record: membranes from HEK-293 cells stably expressing receptor; 0.01 nM [125I] iodospiperone; 25° C., 60 minutes; read-out: Ki(D2)*. The method, then: as §1, §2
The incubation buffer contained 50 mM tris, 120 mM NaCl, 5 mM KCl, 2 mM CaCl2, 2 mM MgCl2 and 0.1% bovine serum albumin. The buffer was adjusted to pH 7.4 with HCl.
as §3, §4

The structures appear in SMILES notation. Where a name gives a salt, the structure may show the parent alone.

T1 sequence (P35462 whole entry): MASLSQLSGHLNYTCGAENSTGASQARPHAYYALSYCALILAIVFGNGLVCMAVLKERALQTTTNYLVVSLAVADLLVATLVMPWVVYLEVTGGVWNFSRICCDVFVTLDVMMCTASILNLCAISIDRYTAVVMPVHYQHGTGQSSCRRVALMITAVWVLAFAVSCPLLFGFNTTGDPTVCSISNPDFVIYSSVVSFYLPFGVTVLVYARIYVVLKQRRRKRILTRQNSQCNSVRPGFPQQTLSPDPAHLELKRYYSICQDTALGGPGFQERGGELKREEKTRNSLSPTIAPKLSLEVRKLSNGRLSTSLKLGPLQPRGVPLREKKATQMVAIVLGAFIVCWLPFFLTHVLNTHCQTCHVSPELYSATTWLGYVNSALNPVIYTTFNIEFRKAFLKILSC
T2 sequence (P14416 whole entry, canonical isoform): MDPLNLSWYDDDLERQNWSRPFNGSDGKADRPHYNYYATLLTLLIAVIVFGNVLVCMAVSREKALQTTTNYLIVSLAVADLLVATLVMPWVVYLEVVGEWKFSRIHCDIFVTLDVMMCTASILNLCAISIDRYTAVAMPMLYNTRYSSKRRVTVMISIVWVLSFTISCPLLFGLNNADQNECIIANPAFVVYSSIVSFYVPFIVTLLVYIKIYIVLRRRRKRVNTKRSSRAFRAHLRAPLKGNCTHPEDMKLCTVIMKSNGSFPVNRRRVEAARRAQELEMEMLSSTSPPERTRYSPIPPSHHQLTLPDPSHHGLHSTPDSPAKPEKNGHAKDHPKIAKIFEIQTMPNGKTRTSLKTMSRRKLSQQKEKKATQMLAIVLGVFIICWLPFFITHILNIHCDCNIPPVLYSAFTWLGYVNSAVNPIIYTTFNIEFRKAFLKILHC

As usually defined, the Ki is the dissociation constant of the complex between target and ligand, obtained from inhibition or displacement. Turning to `CCCNCc1cc2cc(NS(=O)(=O)c3ccc(C(C)C)cc3)ccc2[nH]1` [Example 1, 4-Isopropyl-N-(2-propylaminomethyl-1H-indol-5-yl)-benzenesulfonamide], the Ki was determined as 5.8 nM in assay [1] and 225 nM in assay [2]. Moreover, in assay [1], the “Ki(D2)*/Ki(D3)*” value is recorded as 39.
The corresponding values for `CCCNCC1Cc2cc(NS(=O)(=O)c3ccc(C(C)C)cc3)ccc2N1` (stereo not shown) [Example 2, 4-Isopropyl-N-(2-propylaminomethyl-2,3-dihydro-1H-indol-5-yl)-benzenesulfonamide×HCl] are 9.4 nM, 517 nM and 55.
The corresponding values for `CCCNCc1cc2cc(NS(=O)(=O)c3ccc(OC(F)(F)F)cc3)ccc2[nH]1` [Example 3, N-(2-Propylaminomethyl-1H-indol-5-yl)-4-trifluoromethoxy-benzenesulfonamide×½ fumaric acid] are 55 nM, 55 nM and 23.
The corresponding values for `CCCNCC1Cc2cc(NS(=O)(=O)c3ccc(OC(F)(F)F)cc3)ccc2N1` (stereo not shown) [Example 4, N-(2-Propylaminomethyl-2,3-dihydro-1H-indol-5-yl)-4-trifluoromethoxy-benzenesulfonamide×HCl] are 63.4 nM, 7640 nM and 120.
For `CCCNCC1CCCc2cc(NS(=O)(=O)c3ccc(C(C)C)cc3)ccc21` (stereo not shown) [Example 5, 4-Isopropyl-N-(5-propylaminomethyl-5,6,7,8-tetrahydro-naphthalen-2-yl)-benzenesulfonamide×HCl], in assay [1], the Ki came to 1.72 nM and the “Ki(D2)*/Ki(D3)*” value was 69. For the same compound, the Ki in assay [2] turned out to be 119 nM.
The corresponding values for `CCCNCC1Cc2ccc(NS(=O)(=O)c3ccc(C(C)C)cc3)cc2C1` (stereo not shown) [Example 7, 4-Isopropyl-N-(2-propylaminomethyl-indan-5-yl)-benzenesulfonamide] are 7.4 nM, 54 and 398 nM.
The corresponding values for `C=CCNCC1Cc2cccc(NS(=O)(=O)c3ccc(C(C)C)cc3)c2C1` (stereo not shown) [Example 9, 4-Isopropyl-N-(2-allylaminomethyl-indan-4-yl)-benzenesulfonamide] are 4.3 nM, 54 and 232 nM.
The matching figures for `CCCNCC1CCc2cc(NS(=O)(=O)c3ccc(C(C)C)cc3)ccc21` (stereo not shown) [Example 10, 4-Isopropyl-N-(1-propylaminomethyl-indan-5-yl)-benzenesulfonamide]: 1.32 nM, 45 and 58.6 nM.
On to `CCCN1CCC2c3ccc(NS(=O)(=O)c4ccc(C(C)C)cc4)cc3NC2C1` (stereo not drawn) [Example 12, 4-Isopropyl-N-(2-propyl-2,3,4,4a,9,9a-hexahydro-1H-beta-carbolin-7-yl)-benzenesulfonamide], for which, in assay [1], the Ki turned out to be 5.3 nM and the “Ki(D2)*/Ki(D3)*” value is given as 26. For the same compound, the Ki in assay [2] was 137 nM.
With `CCCN1CC2CCc3c(cc(Cl)c(NS(=O)(=O)c4ccc(C(C)C)cc4)c3Cl)C2C1.Cl` (stereo not shown) [Example 13, N-(6,8-Dichloro-2-propyl-2,3,3a,4,5,9b-hexahydro-1H-benzo[e]isoindol-7-yl)-4-isopropyl-benzenesulfonamide, hydrochloride], in assay [1], affinity was put at a Ki of 10.1 nM and the “Ki(D2)*/Ki(D3)*” value is given as 5.
The matching figures for `CCCN1CC2CCc3cc(NS(=O)(=O)c4ccc(C(C)C)cc4)ccc3C2C1.Cl` (stereo not shown) [Example 14, 4-Isopropyl-N-(2-propyl-2,3,3a,4,5,9b-hexahydro-1H-benzo[e]isoindol-7-yl)-benzenesulfonamide, hydrochloride]: 0.5 nM and 28.
The matching figures for `CCCN1CC2CCc3cc(NS(=O)(=O)c4ccc(C(C)C(F)(F)F)cc4)ccc3C2C1.Cl` (stereo not shown) [Example 15, N-(2-Propyl-2,3,3a,4,5,9b-hexahydro-1H-benzo[e]isoindol-7-yl)-4-(2,2,2-trifluoro-1-methylethyl)-benzenesulfonamide, hydrochloride]: 1.8 nM and 36.
The corresponding values for `CCCN1CC2CCc3cc(NS(=O)(=O)c4ccc(OC(F)(F)F)cc4)ccc3C2C1.Cl` (stereo not shown) [Example 16, N-(2-Propyl-2,3,3a,4,5,9b-hexahydro-1H-benzo[e]isoindol-7-yl)-4-trifluoromethoxy-benzenesulfonamide hydrochloride] are 3.6 nM and 66.
For `CCCN1CC2CCc3cc(NS(=O)(=O)c4ccc(OC(F)F)cc4)ccc3C2C1.Cl` (stereo not shown) [Example 17, 4-Difluoromethoxy-N-(2-propyl-2,3,3a,4,5,9b-hexahydro-1H-benzo[e]isoindol-7-yl)-benzenesulfonamide, hydrochloride], in assay [1], the Ki was 3.3 nM and the “Ki(D2)*/Ki(D3)*” value turned out to be 19.
